Series [1] deals with gram-positive and gram-negative bacteria. The series can be described thus: In vitro antibacterial activity against gram-positive and gram-negative bacteria (in words). As to conditions: versus nalidixic acid and pipemidic acid. It counts as cell-based. On the procedure:
(§1) The minimum inhibitory concentration (MIC) of the compound (I) was determined by an agar dilution technique (the standard method of Japan Society of Chemotherapy) against standard strains of gram-positive and gram-negative bacteria.

Series [2] in a line: Tissue levels after a single oral administration, mice and rats together. The format is in vivo. As to conditions: single oral 50 mg/kg. How it is done: Tissue levels of the compound (I) after a single oral administration of 50 mg/kg in mice and rats
Tissue levels of the compound (I) were determined by micro-biological assay which employed the thin layer cup method with Bacillus subtilis ATCC6633 as the test organism. Serum and tissue levels of the compound (I) were calculated with the standard curve prepared in normal serum of the test animal species and M/15 phosphate buffer (pH 7.5), respectively.

The nature of a further series: Acute toxicity in mice. It counts as in vivo. Conditions: for LD50 at 168 h: mouse, in vivo, male mice, 7 days observation. From the text: Acute toxicity of the compound (I) was examined in mice (ICR strain, 7 weeks old). Observation period was 7 days after a single oral and intravenous administration.
In series [3] the test system is Staphylococcus aureus Smith. The experiment in a line: MIC against the infecting strain (Table 2). It counts as cell-based. As to conditions: Staphylococcus aureus Smith; read-out: MIC. How it is done: as §1
The next series relates to E. coli ML4707. The series can be described thus: MIC against the infecting strain (Table 2). As to conditions: Escherichia coli; E. coli ML4707; read-out: MIC. It counts as cell-based. How it is done:
as §1

In series [4] the test system is Haemophilus influenzae IID986. The experiment in a line: In vitro antibacterial activity (MIC, agar dilution). It counts as cell-based. As to conditions: Haemophilus influenzae IID986; inoculum 10^8 cells/ml; read-out: MIC. On the procedure:
as §1
(§2) Inoculum size: 10^8 cells/ml

The next series deals with S. epidermidis IID866. The series is described as above. It counts as cell-based. As to conditions: Staphylococcus epidermidis, inoculum 10^8 cells/ml. On the procedure: as §1, §2
In series [5] the test system is Alcaligenes faecalis 0104002. The description is as above. The format is cell-based. As to conditions: inoculum 10^8 cells/ml. On the procedure: as §1, §2
Another series deals with P. morganii IID602. Described as above. It counts as cell-based. Conditions: Morganella morganii, inoculum 10^8 cells/ml. On the procedure:
as §1, §2

For another series, the system named is E. coli ATCC10536. The description is as above. It counts as cell-based. Conditions: Escherichia coli; E. coli ATCC10536; inoculum 10^8 cells/ml; read-out: MIC. On the procedure: as §1, §2
The subject of the next series is Proteus vulgaris IFO3167. The description is as above. It counts as cell-based. As to conditions: Proteus vulgaris IFO3167; inoculum 10^8 cells/ml; read-out: MIC. On the procedure: as §1, §2
Series [6] has as its system Acinetobacter enitratus IID876. Described as above. The format is cell-based. Conditions: inoculum 10^8 cells/ml. How it is done:
as §1, §2

For another series, the system named is S. pyogenes S-8. The series is described as above. The format is cell-based. As to conditions: Streptococcus pyogenes, S8; S. pyogenes S-8; inoculum 10^8 cells/ml; read-out: MIC. On the procedure: as §1, §2

The values that follow come from patent publication US4429127A, “Quinoline carboxylic acid derivative” (Kyorin Pharmaceutical Co., Ltd., priority 1981, dated 1984).

In brackets after ≈: the same amount, converted by molar mass.

With `CCn1cc(C(=O)O)c(=O)c2cc(F)c(N3CCN(Cc4ccc(N)cc4)CC3)c(F)c21` [compound (I), 7-[4-(p-aminobenzyl)-1-piperazinyl]-1-ethyl-6,8-difluoro-1,4-dihydro-4-oxoquinoline-3-carboxylic acid], in [1], the “Antibacterial activity against gram-positive and gram-negative bacteria, in words” value was “more active than nalidixic acid and pipemidic acid”. Also, the “Level in lung, liver and kidney relative to serum, in words” value in [2] (both species) was “higher than those in serum”. For the same compound, the “Transferability in tissues, in words” value in [2] (mice and rats) was “very excellent”. In [2] (serum, mice and rats, read-out: Time to peak serum level), the Tmax was in the range of 30 to 60 min. The “Acute toxicity, in words” value in the series “Acute toxicity in mice” (mice, single oral and intravenous administration) was “low toxicity”. Also, the median lethal dose (LD50) at 168 h in the series “Acute toxicity in mice” (iv) is 250 to 300 mg/kg; in “Acute toxicity in mice” (po) it was more than 4000 mg/kg. The MIC in series [3] turned out to be 0.05 µg/mL (≈ 0.113 µM); in the series with E. coli ML4707, 0.39 µg/mL (≈ 0.881 µM); in series [4] it was 0.2 µg/mL (≈ 0.452 µM); with S. epidermidis IID866, 0.2 µg/mL (≈ 0.452 µM); in series [5], 3.13 µg/mL (≈ 7.07 µM); against P. morganii IID602, 1.56 µg/mL (≈ 3.53 µM). For the same compound, the MIC with E. coli ATCC10536 was determined as 0.39 µg/mL (≈ 0.881 µM); in the series with Proteus vulgaris IFO3167 it was 1.56 µg/mL (≈ 3.53 µM); in series [6] it was 0.78 µg/mL (≈ 1.76 µM); in the series on S. pyogenes S-8, 0.78 µg/mL (≈ 1.76 µM).
